The values that follow are results of earlier work, collected in patent publication US20160143911A1, “STABLE AND WATER SOLUBLE PHARMACEUTICAL COMPOSITIONS COMPRISING PEMETREXED” (SYNTHON B.V., priority 2013, published 2016).

The conditions of this data set: free diacid form.

For `Nc1nc2[nH]cc(CCc3ccc(C(=O)N[C@@H](CCC(=O)O)C(=O)O)cc3)c2c(=O)[nH]1` [pemetrexed diacid, N-[4-[2-(2-amino-4,7-dihydro-4-oxo-1H-pyrrolo [2,3-d]pyrimidin-5-yl)ethyl]benzoyl]-L-glutamic acid], the Solubility in water result was “only sparingly soluble in water”.
